Results on 22 compounds are retold here after patent US10239887B2, “Positive allosteric modulators of the muscarinic acetylcholine receptor M4” (Vanderbilt University, priority 2016, dated 2019).

Read-outs that look alike come from different tables or passages of the source.

One experiment addresses T1, rat mAChR M4 (Rattus norvegicus, UniProt P08485).
T1 sequence (P08485 1-478): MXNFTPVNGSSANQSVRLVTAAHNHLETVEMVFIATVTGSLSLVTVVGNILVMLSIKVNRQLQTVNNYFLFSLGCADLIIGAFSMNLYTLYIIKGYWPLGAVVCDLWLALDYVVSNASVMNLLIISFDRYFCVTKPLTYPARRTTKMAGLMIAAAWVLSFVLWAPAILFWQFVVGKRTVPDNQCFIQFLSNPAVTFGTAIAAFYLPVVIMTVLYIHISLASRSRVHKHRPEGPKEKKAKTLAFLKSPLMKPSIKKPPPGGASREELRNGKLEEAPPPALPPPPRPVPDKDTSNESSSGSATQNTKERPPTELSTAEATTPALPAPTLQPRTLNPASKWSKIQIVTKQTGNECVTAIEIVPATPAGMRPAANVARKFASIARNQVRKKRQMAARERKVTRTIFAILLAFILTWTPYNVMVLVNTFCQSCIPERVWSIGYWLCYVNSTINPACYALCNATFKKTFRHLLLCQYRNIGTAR
In words: mAChR M4 cell-based functional assay (calcium flux), rat M4. More on the design: Emax: dose or concentration left out as unconfirmed. The conditions noted are these: for EC50: read-out: Rat M4 EC50, CHO-K1 rM4-Gqi5 cells, calcium flux, increase in EC20 acetylcholine response.

The target of a further experiment is T2, human mAChR M4 (Homo sapiens, UniProt P08173).
T2 sequence (P08173 1-479): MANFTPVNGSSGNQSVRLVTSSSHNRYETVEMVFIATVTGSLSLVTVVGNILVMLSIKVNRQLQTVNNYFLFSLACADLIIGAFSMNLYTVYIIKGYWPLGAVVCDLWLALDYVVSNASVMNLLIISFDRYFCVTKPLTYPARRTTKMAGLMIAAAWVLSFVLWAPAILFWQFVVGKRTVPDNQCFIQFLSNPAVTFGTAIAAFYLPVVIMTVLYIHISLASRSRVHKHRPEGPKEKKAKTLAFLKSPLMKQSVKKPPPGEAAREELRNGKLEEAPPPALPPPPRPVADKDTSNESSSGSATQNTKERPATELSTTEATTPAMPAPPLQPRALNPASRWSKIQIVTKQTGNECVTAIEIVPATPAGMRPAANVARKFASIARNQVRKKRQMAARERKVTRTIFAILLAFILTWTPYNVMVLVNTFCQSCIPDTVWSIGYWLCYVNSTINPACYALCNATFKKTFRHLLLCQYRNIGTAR
In words: mAChR M4 cell-based functional assay (calcium flux), human M4. The conditions noted are these: for Emax: % ACh maximum at 30 μM.

[1] abbreviates: Human M4 EC50, CHO-K1 hM4-Gqi5 cells, calcium flux, increase in EC20 acetylcholine response.
The mark [2] stands for this setting: Human M4 EC50 (nM), Table 11, calcium flux, PAM activity with EC20 acetylcholine.

Consider `Cc1nnc2sc3c(N(C)C)ncnc3c2c1C` [Compound 1, N,N,3,4-tetramethylpyrimido[4′,5′:4,5]thieno[2,3-c]pyridazin-8-amine], for which the Emax at rat mAChR M4 turned out to be 79%; at human mAChR M4 (Human M4), 62%. Also, the results for the EC50 on rat mAChR M4 and on human mAChR M4 (setting [1]) were 724 nM and 638 nM, respectively.
For the compound `Cc1nnc2sc3c(NC4CCCCC4)ncnc3c2c1C` [Compound 2, N-cyclohexyl-3,4-dimethylpyrimido[4′,5′:4,5] thieno[2,3-c] pyridazin-8-amine], the Emax on rat mAChR M4 was determined as 62%; at human mAChR M4 (Human M4), 52%. The EC50 was determined as 836 nM at rat mAChR M4 and 724 nM on human mAChR M4 (setting [1]).
With `Cc1nnc2sc3c(NC4CCOCC4)ncnc3c2c1C` [Compound 3, 3,4-dimethyl-N-(tetrahydro-2H-pyran-4-yl) pyrimido[4′,5′:4,5] thieno[2,3-c]pyridazin-8-amine], the Emax on rat mAChR M4 stood at 60%; at human mAChR M4 (Human M4), 45%. The figures for the EC50 at rat mAChR M4 and at human mAChR M4 (setting [1]) were 521 nM and 446 nM, respectively.
The like results for `Cc1nnc2sc3c(N4CCCCC4)ncnc3c2c1C` [Compound 4, 3,4-dimethyl-8-(piperidin-1-yl)pyrimido[4′,5′:4,5]thieno [2,3-c]pyridazine] were, in that order, 58%, 44%, 215 nM and 120 nM.
For the compound `Cc1nnc2sc3c(NC4CCC4)ncnc3c2c1C` [Compound 5, N-cyclobutyl-3,4-dimethylpyrimido[4′,5′:4,5] thieno[2,3-c]pyridazin-8-amine], on rat mAChR M4, the Emax amounted to 80% and the EC50 came to 112 nM. In addition, at human mAChR M4 (Human M4), the Emax turned out to be 73%.
For `Cc1nnc2sc3c(N4CCCC4)ncnc3c2c1C` [Compound 6, 3,4-dimethyl-8-(pyrrolidin-1-yl)pyrimido[4′,5′:4,5]thieno [2,3-c]pyridazine], the Emax came to 82% on rat mAChR M4 and 68% at human mAChR M4 (Human M4).
For the compound `Cc1nnc2sc3c(NC4CN(c5ncc(C(F)(F)F)cn5)C4)ncnc3c2c1C` [Compound 7, 3,4-dimethyl-N-(1-(5-(trifluoromethyl)pyrimidin-2-yl)azetidin-3-yl)pyrimido[4′,5′:4,5] thieno[2,3-c]pyridazin-8-amine], the values for the Emax on rat mAChR M4 and on human mAChR M4 (Human M4) were 86% and 74%, respectively. Moreover, the results for the EC50 at rat mAChR M4 and on human mAChR M4 (setting [1]) were 30 nM and 251 nM, respectively.
For `Cc1nnc2sc3c(N4CCN(C5CC5)CC4)ncnc3c2c1C` [Compound 8, 8-(4-cyclopropylpiperazin-1-yl)-3,4-dimethylpyrimido [4′,5′:4,5]thieno[2,3-c] pyridazine] the same measures were 42%, 30%, 700 nM and 616 nM.
Regarding `Cc1nnc2sc3c(N4CCC4)ncnc3c2c1C` [Compound 9, 8-(azetidin-1-yl)-3,4-dimethylpyrimido [4′,5′:4,5]thieno[2,3-c] pyridazine], the results for the Emax on rat mAChR M4 and at human mAChR M4 (Human M4) were 75% and 68%, respectively. Besides, the EC50 on human mAChR M4 (setting [1]) was found to be 351 nM.
Regarding `Cc1nnc2sc3c(N4CC5CC5C4)ncnc3c2c1C` (stereo not drawn) [Compound 10, 8-(3-azabicyclo[3.1.0]hexan-3-yl)-3,4-dimethylpyrimido [4′,5′:4,5]thieno[2,3-c] pyridazine], the Emax at rat mAChR M4 amounted to 86%; on human mAChR M4 (Human M4), 81%. In addition, the EC50 on rat mAChR M4 was 36 nM; at human mAChR M4 (setting [1]) it was 21 nM.
For `Cc1nnc2sc3c(N4CCC(N(C)C)C4)ncnc3c2c1C` (stereo not drawn) [Compound 11, 1-(3,4-dimethylpyrimido [4′,5′:4,5]thieno[2,3-c]pyridazin-8-yl)-N,N-dimethylpyrrolidin-3-amine] the same measures were 55%, 40%, 326 nM and 257 nM.
For `COCCN(C)c1ncnc2c1sc1nnc(C)c(C)c12` [Compound 12, N-(2-methoxyethyl)-N,3,4-trimethylpyrimido [4′,5′:4,5]thieno[2,3-c] pyridazin-8-amine] the same measures were 57%, 40%, 927 nM and 846 nM.
`Cc1nnc2sc3c(NCc4ccc(C(C)(C)CO)cc4F)ncnc3c2c1C` [Compound 368, 2-[4-[[(3,4-dimethylpyrimido[4′,5′:4,5]thieno[2,3-c]pyridazin-8-yl)amino]methyl]-3-fluoro-phenyl]-2-methyl-propan-1-ol]: on human mAChR M4 (setting [2]), the EC50 was 766 nM. Moreover, at human mAChR M4 (Table 11), the Emax was 98%.
On to `[2H]C([2H])(Nc1ncnc2c1sc1nnc(C)c(C)c12)c1ccc(C(C)(C)O)cc1` [Compound 369, 2-[4-[dideuterio-[(3,4-dimethylpyrimido[4′,5′:4,5]thieno[2,3-c]pyridazin-8-yl)amino]methyl]phenyl] propan-2-ol], for which the Emax at human mAChR M4 (Table 11) worked out at 100%.
Consider `[2H]C([2H])([2H])OC(C)(C)c1ccc(CNc2ncnc3c2sc2nnc(C)c(C)c23)cc1` [Compound 370, 3,4-dimethyl-N-[[4-[1-methyl-1-(trideuteriomethoxy)ethyl]phenyl]methyl] pyrimido[4′,5′:4,5]thieno [2,3-c]pyridazin-8-amine], for which the EC50 at human mAChR M4 (setting [2]) was determined as 326 nM. On human mAChR M4 (Table 11), the Emax is 93.1%.
`Cc1nnc2sc3c(NCc4ccc(C(C)(C)N)cc4)ncnc3c2c1C` [Compound 371, N-[[4-(1-amino-1-methyl-ethyl)phenyl]methyl]-3,4-dimethyl-pyrimido[4′,5′:4,5] thieno[2,3-c]pyridazin-8-amine]: on human mAChR M4 (setting [2]), the EC50 was 41.6 nM. Further, the Emax on human mAChR M4 (Table 11) is 93.6%.
Consider `Cc1nnc2sc3c(NCc4ccc5c(c4)COC5(C)C)ncnc3c2c1C` [Compound 372, N-[(1,1-dimethyl-3H-isobenzofuran-5-yl)methyl]-3,4-dimethyl-pyrimido[4′,5′:4,5]thieno [2,3-c]pyridazin-8-amine], for which the Emax at human mAChR M4 (Table 11) is 94.7%.
`Cc1nnc2sc3c(NCc4ccc(C(C)(O)CO)cc4)ncnc3c2c1C` (stereo not drawn) [Compound 373, 2-[4-[[(3,4-dimethylpyrimido[4′,5′:4,5]thieno[2,3-c]pyridazin-8-yl)amino]methyl]phenyl] propane-1,2-diol]: the EC50 on human mAChR M4 turned out to be 69.2 nM. The Emax at human mAChR M4 (Table 11) was found to be 98%.
For the compound `Cc1nnc2sc3c(NCc4ccc(C5COC5)cc4)ncnc3c2c1C` [Compound 374, 3,4-dimethyl-N-[[4-(oxetan-3-yl)phenyl]methyl] pyrimido[4′,5′:4,5]thieno [2,3-c]pyridazin-8-amine], the EC50 on human mAChR M4 (setting [2]) stood at 45.2 nM. Besides, the Emax at human mAChR M4 (Table 11) amounted to 101%.
The like results for `Cc1nnc2sc3c(NCc4ccc(C(C)(C)CO)cc4)ncnc3c2c1C` [Compound 375, 2-[4-[[(3,4-dimethylpyrimido[4′,5′:4,5]thieno[2,3-c]pyridazin-8-yl)amino]methyl]phenyl]-2-methyl-propan-1-ol] were, in that order, 138 nM and 87.2%.
For the compound `CC(=O)OCc1nnc2sc3c(NCc4ccc(C(C)(C)O)cc4)ncnc3c2c1C` [Compound 376, [8-[[4-(1-hydroxy-1-methyl-ethyl)phenyl]methylamino]-4-methyl-pyrimido[4′,5′:4,5]thieno[2,3-c]pyridazin-3-yl]methyl acetate], the Emax at human mAChR M4 (Table 11) stood at 59.4%.
The same measure, in the same setting: for `Cc1c(CO)nnc2sc3c(NCc4ccc(C(C)(C)O)cc4)ncnc3c12` [Compound 377, 2-[4-[[[3-(hydroxymethyl)-4-methyl-pyrimido[4′,5′:4,5]thieno[2,3-c]pyridazin-8-yl]amino]methyl]phenyl]propan-2-ol] the value was 93.6%.
